Experimental data reported in paper PMC10590419, “Structural and mechanistic insights into the inhibition of respiratory syncytial virus polymerase by a non-nucleoside inhibitor” (Communications Biology, 2023).

Experiments:
[1] = tested on: rVSV (Indiana strain-derived, luciferase reporter); assay: microbe, parasite or virus in culture; format: cell-based, vesicular stomatitis virus
[2] = molecular target: T1, Human DNA polymerase beta (Homo sapiens, UniProt P06746); assay: DNA-dependent DNA polymerase activity; format: biochemical; details: DNA Pol β
T1 construct: purchased CHIMERx
Description: (§1) to the method described previously 1. A 25 nM solution of RSV MTase-CTD protein or RSV L+P complex was incubated with 0.7 µM or 1.8 µM purified synthetic RNA 5’-Gppp […]
(§2) […] (RSV9) for the MTase-CTD or L+P complex, respectively; 2 µM or 0.17 µM S-adenosyl methionine (SAM) for the MTase-CTD or L–P complex, respectively; and 0.1 µM or 0.8 µM 3H-SAM (Perkin Elmer) for the MTase-CTD or L–P complex, respectively; in 50 mM Tris-HCl pH 8.0. Compounds, previously dissolved in DMSO were added at a final concentration of 50 µM or 200 µM. After 3 h incubation at 30°C, reactions were quenched by a 20-fold dilution in ice cold water. Samples were transferred to DEAE filtermats (Perkin Elmer) using a Filtermat Harvester (Packard Instruments). The RNA-retaining mats were washed twice with 10 mM ammonium formate pH 8.0, twice with water and once with ethanol. They were then soaked with scintillation fluid (Perkin Elmer), and 3H-methyl transfer to the RNA substrates was determined using a Wallac MicroBeta TriLux Liquid Scintillation Counter.
(§3) Cellular polymerase assays
(§4) DNA-dependant DNA polymerase (DdDp) activity
(§5) Human DNA polymerases alpha (CHIMERx) at 5 U/ml, beta (CHIMERx) at 0.5 U/ml and gamma (Abcam) at 0.1 mg/ml were incubated with the tested inhibitors at specified concentrations, and a reaction mix composed of 62 µg/ml activated calf thymus DNA, dGTP (2 µM), dATP (2 µM), dCTP (2 µM), [ 3H]dTTP (0.05 µCi/µl), 0.1 mg/ml BSA and a buffer composed of Tris-HCl pH 8 (50 mM), MgCl 2 (5 mM), KCl (60 mM), and DTT (4 mM.) in a total volume of 50 µl. After 2 hours incubation at 30°C, reaction was terminated by addition of 60 µl of a chilled stop solution composed of 20% (w/v) TCA with 0.5 mM ATP. […] Radioactivity was measured via liquid scintillation counting (MicroScint-20, 40µl) on a TriLux apparatus. […]
(§6) The RNA transcription activity of human mitochondrial RNA polymerase (POLRMT) was measured by the incorporation of radioactively labeled nucleotides by POLRMT into acid-insoluble RNA products as described previously 2. […]

[3] = molecular target: T2, Human DNA polymerase gamma (Homo sapiens, UniProt P54098); assay: DNA-dependent DNA polymerase activity; format: biochemical; details: DNA Pol γ
T2 construct: purchased Abcam
T2 sequence (P54098 1-1239): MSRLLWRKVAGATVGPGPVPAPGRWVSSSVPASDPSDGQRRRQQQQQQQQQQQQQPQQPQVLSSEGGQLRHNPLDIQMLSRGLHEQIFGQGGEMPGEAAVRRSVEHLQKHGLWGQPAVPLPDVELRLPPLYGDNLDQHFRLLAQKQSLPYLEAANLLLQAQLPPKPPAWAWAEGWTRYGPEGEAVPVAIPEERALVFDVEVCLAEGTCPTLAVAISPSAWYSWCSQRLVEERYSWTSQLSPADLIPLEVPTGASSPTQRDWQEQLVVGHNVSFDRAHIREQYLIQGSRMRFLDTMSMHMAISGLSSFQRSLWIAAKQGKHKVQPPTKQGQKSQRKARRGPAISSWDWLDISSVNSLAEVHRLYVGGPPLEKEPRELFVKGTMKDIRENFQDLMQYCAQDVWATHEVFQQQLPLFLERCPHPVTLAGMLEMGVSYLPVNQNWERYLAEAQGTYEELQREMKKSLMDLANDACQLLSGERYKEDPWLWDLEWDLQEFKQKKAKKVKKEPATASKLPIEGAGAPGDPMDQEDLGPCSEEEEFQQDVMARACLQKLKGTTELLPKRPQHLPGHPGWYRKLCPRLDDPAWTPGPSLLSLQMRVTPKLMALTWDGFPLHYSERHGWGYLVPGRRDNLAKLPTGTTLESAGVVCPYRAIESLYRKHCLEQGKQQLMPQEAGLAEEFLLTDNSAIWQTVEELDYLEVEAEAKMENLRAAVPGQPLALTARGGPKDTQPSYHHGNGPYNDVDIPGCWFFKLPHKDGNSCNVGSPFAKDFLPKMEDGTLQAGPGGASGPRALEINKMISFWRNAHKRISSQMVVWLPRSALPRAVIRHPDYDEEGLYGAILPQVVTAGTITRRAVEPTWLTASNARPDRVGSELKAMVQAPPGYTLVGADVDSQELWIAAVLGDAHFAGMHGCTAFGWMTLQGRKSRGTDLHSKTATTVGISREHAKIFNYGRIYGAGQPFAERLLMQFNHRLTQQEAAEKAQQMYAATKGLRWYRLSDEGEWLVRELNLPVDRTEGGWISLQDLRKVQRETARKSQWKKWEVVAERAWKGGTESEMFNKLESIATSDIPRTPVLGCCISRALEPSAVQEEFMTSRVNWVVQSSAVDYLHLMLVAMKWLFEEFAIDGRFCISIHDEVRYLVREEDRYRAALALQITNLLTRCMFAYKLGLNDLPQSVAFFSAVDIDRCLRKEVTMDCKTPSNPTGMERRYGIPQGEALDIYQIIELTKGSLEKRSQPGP
Description: as §1, §2, §3, §4, §5, §6

RSV L+P complex = RSV L+P complex (Human respiratory syncytial virus A, UniProt P28887); assay: Thermal shift assay (Prometheus NT.48); format: binding, Human RSV (strain A2); details: read-out: increase in melting temperature (Tm)
in vitro = details: human

Sequence of RSV L+P complex (P03421 whole entry): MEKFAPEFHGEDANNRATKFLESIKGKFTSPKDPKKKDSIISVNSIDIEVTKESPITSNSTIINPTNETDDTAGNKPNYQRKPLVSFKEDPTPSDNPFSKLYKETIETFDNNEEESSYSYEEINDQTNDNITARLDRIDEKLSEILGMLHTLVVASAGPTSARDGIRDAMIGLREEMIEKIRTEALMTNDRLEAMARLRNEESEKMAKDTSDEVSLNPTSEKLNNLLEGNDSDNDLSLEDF
Sequence of RSV L+P complex (P28887 whole entry): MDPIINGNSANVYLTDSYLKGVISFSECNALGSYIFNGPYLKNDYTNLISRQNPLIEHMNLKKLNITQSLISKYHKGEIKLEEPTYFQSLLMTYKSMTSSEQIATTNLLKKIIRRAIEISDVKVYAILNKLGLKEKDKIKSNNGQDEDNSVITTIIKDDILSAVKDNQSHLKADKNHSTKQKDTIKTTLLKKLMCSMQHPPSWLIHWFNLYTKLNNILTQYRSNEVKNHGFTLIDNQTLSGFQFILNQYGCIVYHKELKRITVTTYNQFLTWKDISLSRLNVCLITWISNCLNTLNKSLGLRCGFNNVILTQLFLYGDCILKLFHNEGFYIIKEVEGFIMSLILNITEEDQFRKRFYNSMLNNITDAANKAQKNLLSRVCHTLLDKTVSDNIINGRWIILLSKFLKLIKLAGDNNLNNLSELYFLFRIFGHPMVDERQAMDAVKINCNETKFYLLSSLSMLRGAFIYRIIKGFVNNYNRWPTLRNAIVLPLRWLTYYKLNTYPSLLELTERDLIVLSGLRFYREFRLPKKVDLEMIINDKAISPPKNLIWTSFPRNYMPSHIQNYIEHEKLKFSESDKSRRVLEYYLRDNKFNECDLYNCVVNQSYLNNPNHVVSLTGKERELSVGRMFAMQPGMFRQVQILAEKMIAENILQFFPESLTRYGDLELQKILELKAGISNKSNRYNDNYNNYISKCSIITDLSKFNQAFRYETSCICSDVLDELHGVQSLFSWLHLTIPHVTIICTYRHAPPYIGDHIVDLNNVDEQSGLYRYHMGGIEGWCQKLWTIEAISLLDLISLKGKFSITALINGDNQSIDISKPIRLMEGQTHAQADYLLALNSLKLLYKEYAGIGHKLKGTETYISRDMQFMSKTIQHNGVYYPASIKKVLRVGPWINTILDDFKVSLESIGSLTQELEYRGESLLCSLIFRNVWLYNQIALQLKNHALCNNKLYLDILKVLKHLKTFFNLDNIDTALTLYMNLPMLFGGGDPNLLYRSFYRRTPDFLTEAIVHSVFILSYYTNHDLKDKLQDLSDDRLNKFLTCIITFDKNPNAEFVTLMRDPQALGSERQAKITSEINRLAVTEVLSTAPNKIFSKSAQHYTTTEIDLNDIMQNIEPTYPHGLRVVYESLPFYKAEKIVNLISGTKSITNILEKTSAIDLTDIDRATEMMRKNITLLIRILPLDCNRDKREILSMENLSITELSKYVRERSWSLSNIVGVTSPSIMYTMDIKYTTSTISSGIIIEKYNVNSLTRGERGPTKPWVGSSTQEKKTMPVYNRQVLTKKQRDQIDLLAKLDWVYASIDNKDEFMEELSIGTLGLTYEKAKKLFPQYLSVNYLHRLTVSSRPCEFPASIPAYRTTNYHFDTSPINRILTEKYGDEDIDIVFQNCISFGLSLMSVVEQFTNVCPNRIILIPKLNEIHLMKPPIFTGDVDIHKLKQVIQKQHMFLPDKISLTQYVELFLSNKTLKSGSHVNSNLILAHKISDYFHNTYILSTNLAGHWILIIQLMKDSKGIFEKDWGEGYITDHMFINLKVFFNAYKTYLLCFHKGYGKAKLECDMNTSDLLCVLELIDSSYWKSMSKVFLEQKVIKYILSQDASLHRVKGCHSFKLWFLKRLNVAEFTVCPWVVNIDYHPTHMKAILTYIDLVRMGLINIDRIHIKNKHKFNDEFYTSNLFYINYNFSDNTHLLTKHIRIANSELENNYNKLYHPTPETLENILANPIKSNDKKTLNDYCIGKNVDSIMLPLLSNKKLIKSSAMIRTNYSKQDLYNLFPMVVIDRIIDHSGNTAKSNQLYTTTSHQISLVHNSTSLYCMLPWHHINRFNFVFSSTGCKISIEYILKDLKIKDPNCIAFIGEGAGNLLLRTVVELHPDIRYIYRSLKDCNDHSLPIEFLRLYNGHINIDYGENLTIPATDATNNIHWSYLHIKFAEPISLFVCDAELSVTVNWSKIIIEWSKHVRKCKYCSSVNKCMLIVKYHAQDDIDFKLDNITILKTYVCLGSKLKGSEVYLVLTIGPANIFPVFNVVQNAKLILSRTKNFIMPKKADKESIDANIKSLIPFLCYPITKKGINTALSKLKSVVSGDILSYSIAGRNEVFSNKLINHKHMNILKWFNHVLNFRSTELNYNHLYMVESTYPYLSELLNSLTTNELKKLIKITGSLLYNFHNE

COc1cc(C(=O)NC[C@](O)(c2cc(C(C)(C)O)c(F)c(-c3ccc(F)cc3)n2)C(F)(F)F)cc2cc(C)nnc12 [JNJ-8003]
inhibition (in words) [1]: negligible inhibition | EC50 ([1]; Vesicular stomatitis virus, A549, read-out: Median EC50): > 25 µM | IC50 [2]: > 100 µM | IC50 [3]: > 100 µM | ΔTm at 25 µM (RSV L+P complex): 6 °C | CC50 at 3 days (in vitro): 27 µM
